Values quoted from earlier work as cited in article PMC8065136, “Elevated expression of the adhesion GPCR ADGRL4/ELTD1 promotes endothelial sprouting angiogenesis without activating canonical GPCR signalling” (Scientific Reports, 2021).

Test system: GPR97
Description: Another possible explanation for the lack of detectable signalling pathways is that other means of activation need to be employed to activate the receptor. Among them mechanical forces or incubation of the full length receptor with a ligand that has not yet been identified. […] Examples include beclomethasone dipropionate on GPR97[45] or Gedunin- and Khivorin-derivatives on GPR56 and GPR114[46]. It is possible that endogenous small molecules could activate ADGRL4/ELTD1 irrespective of the existence of a functional tethered agoni ...

In the case of `CCC(=O)OCC(=O)[C@@]1(OC(=O)CC)[C@@H](C)C[C@H]2[C@@H]3CCC4=CC(=O)C=C[C@]4(C)[C@@]3(Cl)[C@@H](O)C[C@@]21C` [beclomethasone dipropionate], the “Activation of aGPCR” value is given as “activate”.
